Reference: US9981929B2, “Method for prevention of premature polymerization” (NITTO BELGIUM NV, priority 2015, dated 2018)

How the values were obtained:
[1] = Synthesis of SMA via transesterification in the presence of the inhibitors; details: 500 ppm inhibitor
Method: SMA is prepared via transesterification in the presence of the indicated inhibitors. A two-neck flask, equipped with a Dean-Stark apparatus and a reflux condenser, is charged with three equivalents of methyl methacrylate, one equivalent of stearyl/palmityl alcohol and 500 ppm of inhibitor. Air is bubbled through the solution using a needle, septum and vacuum pump, set at 900 mbar.
The methyl methacrylate/methanol azeotrope is collected and at the end of the reaction any remaining methyl methacrylate is removed under reduced pressure at the rotavapor.

[2] = Kugelrohr distillation (purification) of SMA in the presence of the inhibitors; details: 500 ppm inhibitor, 10 g SMA, kugelrohr 240 °C, about 0.2 mbar; visual viscosity increase
Method: The temperature of the kugelrohr is set to 240° C. The distillation starts when the vacuum reached about 0.2 mbar. Polymerization in the rotating pitch is evaluated by visually determining increased viscosity.
The inhibitors were added as such to the SMA prior to the distillation, no methanolic solution as described earlier is used.

[3] = end of reaction after removal of methanol and excess methyl methacrylate

| Properties end (precipitate / solubility of catalyst/inhibitor) [1, 3] | Properties start (solubility of catalyst/inhibitor) ([1]; start of reaction) | Structure (SMILES) | Properties end (color of the reaction mixture) [1, 3] | Properties start (color of the reaction mixture) ([1]; start of reaction) | Polymerization [2] |
| --- | --- | --- | --- | --- | --- |
|  |  | CN(C)c1ccc2nc3ccc(=[N+](C)C)cc-3sc2c1 [MB, methylene blue] | brown liquid | dark blue solution |  |
|  |  | CC(C)(C)c1cc(OCCCS(=O)(=O)[O-])c(C(C)(C)C)cc1O.CN(C)c1ccc2nc3ccc(N(C)C)cc3[s+]c2c1 [Inhibitor I-4] | purple liquid | deep purple solution | no |
|  |  | CCCCCCCCCCCCCCCCS(=O)(=O)[O-].CN(C)c1ccc2nc3ccc(N(C)C)cc3[s+]c2c1.[Cl-].[Na+] [Inhibitor I-2a] | brown liquid very | dark blue solution | no |
| precipitate (catalyst) | homogeneous | COc1ccc(O)cc1 [MeHQ, 4-methoxyphenol] | yellow liquid white | colorless solution |  |
|  |  | CCCCCCCCS(=O)(=O)[O-].CN(C)c1ccc2nc3ccc(N(C)C)cc3[s+]c2c1 [Inhibitor I-1, octanesulfonate salt of methylene blue] |  |  | no |
|  |  | CCCCCCCCS(=O)(=O)[O-].CN(C)c1ccc2nc3ccc(N(C)C)cc3[s+]c2c1.[Cl-].[Na+] [Inhibitor I-1a] |  |  | no |
